In patent US20240368123A1, “AROMATIC RING-CONTAINING BIOLOGICAL ANTAGONIST, AND PREPARATION METHOD THEREFOR AND USE THEREOF” (SHANGHAI HANSOH BIOMEDICAL CO., LTD., priority 2021, published 2024):

Columns and labels:
[1] = Liver microsomal metabolism stability test, dog; format: in vitro ADME; settings: for half-life at 1 μM: dog liver microsomes 0.5 mg/mL, compound 1 μM, NADPH/UDPGA; for Remaining rate: dog liver microsomes, 60 min
Protocol: The purpose of this experiment was to detect the stability of the example compounds in liver microsomes of rats, dogs and humans.
• Formulation of working solution of compounds: compound stock solution was added to phosphate buffer to a final concentration of 20 μM.
Dilution was performed with 100 mM phosphate buffer to a final concentration of 0.625 mg/mL.
NADPH (reduced nicotinamide adenine dinucleotide phosphate) and UDPGA (uridine diphosphate glucuronic acid) were weighed, 100 mM phosphate buffer was added, and the final concentration was 20 mM.
1 mg of Alamethicin was weighed, and 200 μL of DMSO was added to formulate a 5 mg/mL solution. Then dilution was performed with phosphate buffer to a final concentration of 50 μg/mL.
Stop solution: the stop solution contains 100 ng/mL labetalol hydrochloride and 400 ng/mL tolbutamide and cold acetonitrile as internal standard.
400 μL of formulated liver microsomes, 25 μL of compound working solution and 25 μL of Alamethicin were added in sequence to the 96-well plate, and pre-incubated at 37° C. for 10 min. Then 50 μL of formulated NADPH/UDPGA was added to start the reaction and the mixture was incubated at 37° C. The total volume of the reaction system was 500 μL. The final contents of each component are as follows:
• Instrument: Shimadzu LC-30 AD; • Chromatographic column: XBridge® C18 (50*4.6 mm, 5 μm particle size); • Mobile phase: A: 0.1% formic acid solution, B: methanol Wash gradient: 0.2-1.6 min 5% A to 95% A, 3.0-3.1 min 95% A to 5% A Run time: 4.0 min.
• Instrument: API5500 liquid chromatography mass spectrometer, AB Sciex; • Ion source: electrospray ionization source (ESI); • Drying gas: N2, temperature 500° C.; • Electrospray voltage: 5000 V; • Detection mode: positive ion detection; • Scanning mode: reaction monitoring (MRM) mode.

ETA receptors = molecular target: T1, ETA receptors (Homo sapiens, UniProt P25101); assay: Effect on calcium current in cells stably expressing ETA receptors (FLIPR, antagonist mode); format: cell-based; settings: HEK293-ETA cells, Fluo-8 AM, FLIPR Tetra; read-out: IC50 values of compounds on calcium current in cells stably expressing ETA receptors
T1 construct: host or cells: HEK293
T1 sequence (P25101 21-427): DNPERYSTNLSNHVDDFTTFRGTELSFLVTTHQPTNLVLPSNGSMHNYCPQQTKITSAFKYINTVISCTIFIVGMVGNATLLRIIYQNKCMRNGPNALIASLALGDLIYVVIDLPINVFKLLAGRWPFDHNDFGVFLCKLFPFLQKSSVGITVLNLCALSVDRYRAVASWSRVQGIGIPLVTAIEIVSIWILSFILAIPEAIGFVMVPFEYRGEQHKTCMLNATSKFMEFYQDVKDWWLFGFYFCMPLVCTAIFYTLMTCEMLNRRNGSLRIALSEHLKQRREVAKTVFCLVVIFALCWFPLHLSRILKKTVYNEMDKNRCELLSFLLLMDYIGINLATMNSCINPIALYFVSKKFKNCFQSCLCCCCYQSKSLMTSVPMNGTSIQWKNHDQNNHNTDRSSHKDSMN
Source text: Test Example 2. Determination of the Effect of the Compounds of the Present Invention on Calcium Current in Cells Stably Expressing ETA Receptors
• Antagonistic effect of test compounds on HEK293-ETA cell activity.
• DMEM, high glucose (Gibco: 12100); • Fetal bovine serum (Biosera: FB-1058/500); • P/S (Biosera: XC-A4122); • 5× Matrigel (Corning: 354230); • HBSS (Sigma: H1387); • HEPES (Invitrogen: 15630080); • Fluo-8 AM (AAT Bioquest: 21080); • Probenecid (Sigma: P8761); • Pluronic F-127 (Sigma: P2443-250G); • Endothelin 1 (MCE: HY—P0202); • Zibotentan (MCE: HY-10088); • 1000× Fluo-8 AM (2 mM): Fluo-8 AM was dissolved in DMSO, the mixture was shaken for 1-2 min, sub-packaged and stored at −20° C.; • Complete culture medium: DMEM+10% FBS+1×P/S; • Cell seeding medium: DMEM+10% FBS+1×PS; • Experimental buffer 1: 1×HBSS+20 mM HEPES+1 mM Probenecid+0.025% Pluronic F-127; • Experimental buffer 2: 1×HBSS+20 mM HEPES+0.075% Pluronic F-127; • 1× Matrigel: 5× Matrigel was diluted with DMEM; • Cell line: HDB HEK293-ETA.
• 1) HEK293-ETA cell line was cultured in complete culture medium at 37° C., 5% CO2 to 70%-90% confluence. • 2) the 384-well cell plate was coated with 1× Matrigel with 5 μL/well at room temperature for 10 to 30 min. • 3) the cells were digested and resuspended in cell seeding medium, inoculation was performed at 8,000 cells/well/20 μL in a 384-well cell culture plate, and the cells were cultured at 37° C., 5% CO2 for 24 h. • 4) the cell culture plate was taken out of the CO2 incubator and equilibrated at room temperature for 10 min. • 5) 1000× Fluo-8 AM was taken and diluted to 1× Fluo-8 AM with experimental buffer 1 that has been equilibrated to room temperature, with a concentration of 2 μM. • 6) the culture medium was removed from the cell culture plate, 20 μL of 1× Fluo-8 AM was added to each well, the mixture was centrifuged at 300 rpm for 60 seconds at room temperature, and incubated at room temperature in the dark for 1 h. • 7) positive control compound and test compound working solution (3×) were formulated: • (1) instrument Bravo was used to dilute the compound to 11 concentration points on the 384-well Echo compound plate (LABCYTE: LP-0200); • (2) instrument ECHO was used to transfer 90 nL of compound per well (compound storage concentration, such as the highest concentration point 10 mM) to the 384-well compound plate (PE: 6008590); • (3) Multidrop Combi was used to add 30 μL of experimental buffer 2 to the 384-well compound plate (PE: 6008590), the positive control compound and test compound were diluted to 30 μM (3×), and placed at room temperature until use. • 8) FLIPR Tetra was used to add 10 μL of diluted 3× compound into the experimental well of the corresponding 384-well cell plate, the compound and cells were incubated for 10 min at room temperature, then 10 μL of diluted 4× agonist was added, and the data was read and collected at the same time.
FLIPR Tetra was used to read and collect the fluorescence signal value (RFU). The maximum RFU value was used to calculate the percent activation data based on the readings of the Low control (DMSO control) and High control (100 nM positive compound) experimental groups {% activation rate=(RFUsample−RFUlow control)/(RFUhigh control−RFUlow control)×100}. The concentration of the test compound was 11 concentrations after diluting the reaction system 3 times, ranging from 10 μM to 0.17 nM.

Structure (SMILES)	IC50 (ETA receptors) [nM]	half-life at 1 μM [1] [min]	Remaining rate [1] [%]
CCCCC1=NC2(CCCC2)C(=O)N1Cc1ccc(-c2ccccc2S(=O)(=O)Nc2noc(C)c2Br)c(COCC)c1 [Example 46, 2-[4-[(2-butyl-4-oxo-1,3-diazaspiro[4.4]non-1-en-3-yl)methyl]-2-(ethoxymethyl)phenyl]-N-(4-bromo-5-methyl-isoxazol-3-yl)benzsulfamide]	–	22.2	15.4
[2H]C([2H])(OCC)c1cc(CN2C(=O)C3(CCCC3)N=C2CCCC)ccc1-c1ccccc1S(=O)(=O)Nc1noc(C)c1Cl [Example 49, 4′-((2-butyl-4-oxo-1,3-diazospiro[4.4]non-1-en-3-yl)methyl)-N-(4-chloro-5-methylisoxazol-3-yl)-2′-(ethoxydeuteriummethyl)-[1,1′-biphenyl]-2-sulfonamide]	12.9	29.5	23.9
CCCCC1=NC2(CC3CC3C2)C(=O)N1Cc1ccc(-c2ccccc2S(=O)(=O)Nc2noc(C)c2C)c(COCC)c1 (stereo not drawn) [Example 87, 4′-((2′-butyl-5′-oxaspiro[bicyclo[3.1.0]hexane-3,4′-imidazole]-1′(5′H)-yl)methyl)-N-(4,5-dimethylisoxazol-3-yl)-2′-(ethoxymethyl)-[1,1′-biphenyl]-2-sulfonamide]	8.2	–	–

More lines, main results first:

IC50 (ETA receptors) [nM]	Structure (SMILES)	half-life at 1 μM [1] [min]	Remaining rate [1] [%]
7.2	CCCCC1=NC2(CC3CC3C2)C(=O)N1Cc1ccc(-c2ccccc2S(=O)(=O)Nc2noc(C)c2Cl)c(COCC)c1 (stereo not drawn) [Example 65, 4′-((2′-butyl-5′-oxaspiro[bicyclo[3.1.0]hexane-3,4′-imidazole]-1′(5′H)-yl)methyl)-N-(4-chloro-5-methylisoxazol-3-yl)-2′-(ethoxymethyl)-[1,1′-biphenyl]-2-sulfonamide]	–	–
18.7	CCCCC1=NC2(CCCCC2)C(=O)N1Cc1ccc(-c2ccccc2S(=O)(=O)Nc2noc(C)c2Cl)c(COCC)c1 [Example 68, 4′-((2-2-4-4-oxo-1,3-diazaspiro[4.5]dec-1-en-3-yl)methyl)-N-(4-chloro-5-methylisoxazol-3-yl)-2′-(ethoxymethyl)-[1,1′-biphenyl]-2-sulfonamide]	–	–
13.9	CCCCC1=NC2(CCCC2)C(=O)N1Cc1ccc(-c2ccccc2S(=O)(=O)Nc2noc(C)c2Cl)c(COCC(F)(F)F)c1 [Example 86]	–	–
